In patent publication US10597388B2, “Pyridazinone herbicides” (FMC CORPORATION, priority 2014, dated 2020):
Read-outs that look alike come from different tables or passages of the source.

Legend:
Type in all cases: in vivo
[1] = system: galium (catchweed bedstraw, Galium aparine); experiment: Test A greenhouse herbicide test, postemergence; conditions: Galium, post-emergence, 240 h; for pest or weed control at 125 g/ha: 125 g ai/ha, visual rating after approx. 10 d, 0 to 100 scale (0 no effect, 100 complete control), read-out: Plant response rating, Galium; for pest or weed control at 500 g/ha: 500 g ai/ha, 0 to 100 scale, 0 is no effect, 100 is complete control, read-out: Galium plant response rating
How it was run: (§1)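 Scores are visual injury ratings from 0 (no effect) to 100 (complete control) versus untreated plants, taken roughly 10 d after treatment in the greenhouse. Treatment was postemergence, on one- to two-leaf plants 2–10 cm high growing in a loam soil/sand mix.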

[2] = system: blackgrass (Alopecurus myosuroides); experiment: Test A greenhouse herbicide test, postemergence; conditions: Alopecurus myosuroides, post-emergence, 240 h; for pest or weed control at 125 g/ha: 125 g ai/ha, visual rating after approx. 10 d, 0 to 100 scale (0 no effect, 100 complete control), read-out: Plant response rating, Blackgrass; for pest or weed control at 500 g/ha: 500 g ai/ha, 0 to 100 scale, 0 is no effect, 100 is complete control, read-out: Blackgrass plant response rating
How it was run: as §1

[3] = system: wheat (Triticum aestivum); experiment: Test A greenhouse herbicide test, pre- and postemergence; conditions: Triticum aestivum, post-emergence, 240 h, Postemergence; for plant injury at 125 g/ha: 125 g ai/ha, visual rating after approx. 10 d, 0 to 100 scale (0 no effect, 100 complete control), read-out: Plant response rating, Wheat; for plant injury at 500 g/ha: 500 g ai/ha, 0 to 100 scale, 0 is no effect, 100 is complete control, read-out: Wheat plant response rating
How it was run: (§2)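 Visual injury ratings, 0 (no effect) to 100 (complete control), versus untreated plants after roughly 10 d in a greenhouse. Compounds, formulated in a surfactant-containing non-phytotoxic solvent, were sprayed on loam–sand soil after sowing (pre) or on one- to two-leaf plants 2–10 cm tall (post).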

[4] = system: barnyardgrass (Echinochloa crus-galli); experiment: as above; conditions: Echinochloa crus-galli, 240 h; for pest or weed control at 125 g/ha: 125 g ai/ha; for pest or weed control at 500 g/ha: 500 g ai/ha, 0 to 100 scale
How it was run: as §2

[5] = system: pigweed (Amaranthus retroflexus); experiment: as above; conditions: Amaranthus retroflexus, 240 h; for pest or weed control at 125 g/ha: 125 g ai/ha; for pest or weed control at 500 g/ha: 500 g ai/ha, 0 to 100 scale
How it was run: as §2

[6] = system: foxtail, giant (giant foxtail, Setaria faberii); experiment: as above; conditions: Setaria faberi, 240 h; for pest or weed control at 125 g/ha: 125 g ai/ha; for pest or weed control at 500 g/ha: 500 g ai/ha, 0 to 100 scale
How it was run: as §2

kochia (Kochia scoparia) = experiment: as above; conditions: Bassia scoparia, 240 h; for pest or weed control at 125 g/ha: 125 g ai/ha; for pest or weed control at 500 g/ha: 500 g ai/ha, 0 to 100 scale
How it was run: as §2

[7] = system: ryegrass, Italian (Italian ryegrass, Lolium multiflorum); experiment: as above; conditions: Lolium multiflorum, 240 h; for pest or weed control at 125 g/ha: 125 g ai/ha; for pest or weed control at 500 g/ha: 500 g ai/ha, 0 to 100 scale
How it was run: as §2

[8] = system: ragweed (common ragweed, Ambrosia elatior); experiment: as above; conditions: Ambrosia artemisiifolia, 240 h; for pest or weed control at 125 g/ha: 125 g ai/ha; for pest or weed control at 500 g/ha: 500 g ai/ha, 0 to 100 scale
How it was run: as §2

[9] = post-emergence, Postemergence, visual rating after approx. 10 d, 0 to 100 scale (0 no effect, 100 complete control), read-out: Plant response rating, Barnyardgrass
[10] = post-emergence, Postemergence, 0 is no effect, 100 is complete control, read-out: Barnyardgrass plant response rating
[11] = pre-emergence, Preemergence, 0 to 100 scale where 0 is no effect and 100 is complete control, read-out: Barnyardgrass plant response rating
[12] = pre-emergence, Preemergence, 0 no effect, 100 complete control, read-out: Plant response rating, Barnyardgrass
[13] = post-emergence, Postemergence, visual rating after approx. 10 d, 0 to 100 scale (0 no effect, 100 complete control), read-out: Plant response rating, Pigweed
[14] = post-emergence, Postemergence, 0 is no effect, 100 is complete control, read-out: Pigweed plant response rating
[15] = pre-emergence, Preemergence, 0 to 100 scale where 0 is no effect and 100 is complete control, read-out: Pigweed plant response rating
[16] = pre-emergence, Preemergence, 0 no effect, 100 complete control, read-out: Plant response rating, Pigweed
[17] = post-emergence, Postemergence, visual rating after approx. 10 d, 0 to 100 scale (0 no effect, 100 complete control), read-out: Plant response rating, Foxtail, Giant
[18] = post-emergence, Postemergence, 0 is no effect, 100 is complete control, read-out: Foxtail, Giant plant response rating
[19] = pre-emergence, Preemergence, 0 to 100 scale where 0 is no effect and 100 is complete control, read-out: Foxtail, Giant plant response rating
[20] = pre-emergence, Preemergence, 0 no effect, 100 complete control, read-out: Plant response rating, Foxtail, Giant
[21] = post-emergence, Postemergence, visual rating after approx. 10 d, 0 to 100 scale (0 no effect, 100 complete control), read-out: Plant response rating, Kochia
[22] = post-emergence, Postemergence, 0 is no effect, 100 is complete control, read-out: Kochia plant response rating
[23] = pre-emergence, Preemergence, 0 to 100 scale where 0 is no effect and 100 is complete control, read-out: Kochia plant response rating
[24] = pre-emergence, Preemergence, 0 no effect, 100 complete control, read-out: Plant response rating, Kochia
[25] = post-emergence, Postemergence, visual rating after approx. 10 d, 0 to 100 scale (0 no effect, 100 complete control), read-out: Plant response rating, Ryegrass, Italian
[26] = post-emergence, Postemergence, 0 is no effect, 100 is complete control, read-out: Ryegrass, Italian plant response rating
[27] = pre-emergence, Preemergence, 0 to 100 scale where 0 is no effect and 100 is complete control, read-out: Ryegrass, Italian plant response rating
[28] = pre-emergence, Preemergence, 0 no effect, 100 complete control, read-out: Plant response rating, Ryegrass, Italian
[29] = post-emergence, Postemergence, visual rating after approx. 10 d, 0 to 100 scale (0 no effect, 100 complete control), read-out: Plant response rating, Ragweed
[30] = post-emergence, Postemergence, 0 is no effect, 100 is complete control, read-out: Ragweed plant response rating
[31] = pre-emergence, Preemergence, 0 to 100 scale where 0 is no effect and 100 is complete control, read-out: Ragweed plant response rating
[32] = pre-emergence, Preemergence, 0 no effect, 100 complete control, read-out: Plant response rating, Ragweed

SMILES	pest or weed control at 125 g/ha [1] [%]	pest or weed control at 500 g/ha [1] [%]	pest or weed control at 125 g/ha [2] [%]	pest or weed control at 500 g/ha [2] [%]	plant injury at 125 g/ha [3] [%]	plant injury at 500 g/ha [3] [%]	pest or weed control at 125 g/ha [4, 9] [%]	pest or weed control at 500 g/ha [4, 10] [%]	pest or weed control at 125 g/ha [4, 11] [%]	pest or weed control at 500 g/ha [4, 12] [%]	pest or weed control at 125 g/ha [5, 13] [%]	pest or weed control at 500 g/ha [5, 14] [%]	pest or weed control at 125 g/ha [5, 15] [%]	pest or weed control at 500 g/ha [5, 16] [%]	pest or weed control at 125 g/ha [6, 17] [%]	pest or weed control at 500 g/ha [6, 18] [%]	pest or weed control at 125 g/ha [6, 19] [%]	pest or weed control at 500 g/ha [6, 20] [%]	pest or weed control at 125 g/ha (kochia (Kochia scoparia); [21]) [%]	pest or weed control at 500 g/ha (kochia (Kochia scoparia); [22]) [%]	also measured
Cc1cc(C)c2oc(C)c(-c3c(O)c(C)nn(C)c3=O)c2c1 [Compound 12, 5-hydroxy-2,6-dimethyl-4-(2,5,7-trimethyl-3-benzofuranyl)-3(2H)-pyridazinone]	60	90	20	50	0	0	0	40	20	80	30	50	10	60	10	70	20	90	0	60	pest or weed control at 125 g/ha (kochia (Kochia scoparia); [23]): 0%; pest or weed control at 500 g/ha (kochia (Kochia scoparia); [24]): 10%; pest or weed control at 125 g/ha [7, 25]: 60%; pest or weed control at 500 g/ha [7, 26]: 70%; pest or weed control at 125 g/ha [7, 27]: 20%; pest or weed control at 500 g/ha [7, 28]: 50%; pest or weed control at 125 g/ha [8, 29]: 10%; pest or weed control at 500 g/ha [8, 30]: 70%; pest or weed control at 125 g/ha [8, 31]: 0%; pest or weed control at 500 g/ha [8, 32]: 30%
CC(=O)Oc1c(C)nn(C)c(=O)c1-c1c(C)oc2c(C)cccc12 [Compound 15, 5-(acetyloxy)-4-(2,7-dimethyl-3-benzofuranyl)-2,6-dimethyl-3(2H)-pyridazinone]	70	90	0	50	0	0	70	90	20	90	0	0	0	0	70	90	10	70	50	50	pest or weed control at 125 g/ha (kochia (Kochia scoparia); [23]): 0%; pest or weed control at 500 g/ha (kochia (Kochia scoparia); [24]): 0%; pest or weed control at 125 g/ha [7, 25]: 50%; pest or weed control at 500 g/ha [7, 26]: 90%; pest or weed control at 125 g/ha [7, 27]: 50%; pest or weed control at 500 g/ha [7, 28]: 100%; pest or weed control at 125 g/ha [8, 29]: 50%; pest or weed control at 500 g/ha [8, 30]: 50%; pest or weed control at 125 g/ha [8, 31]: 0%; pest or weed control at 500 g/ha [8, 32]: 30%
CCc1sc2cc(C)cc(C)c2c1-c1c(O)c(C)nn(C)c1=O [Compound 19, 4-(2-ethyl-4,6-dimethylbenzo[b]thien-3-yl)-5-hydroxy-2,6-dimethyl-3(2H)-pyridazinone]	30	80	0	0	0	0	20	80	30	90	0	0	0	0	20	60	0	0	0	0	pest or weed control at 125 g/ha (kochia (Kochia scoparia); [23]): 0%; pest or weed control at 500 g/ha (kochia (Kochia scoparia); [24]): 0%; pest or weed control at 125 g/ha [7, 25]: 0%; pest or weed control at 500 g/ha [7, 26]: 0%; pest or weed control at 125 g/ha [7, 27]: 0%; pest or weed control at 500 g/ha [7, 28]: 0%; pest or weed control at 125 g/ha [8, 29]: 0%; pest or weed control at 500 g/ha [8, 30]: 0%; pest or weed control at 125 g/ha [8, 31]: 0%; pest or weed control at 500 g/ha [8, 32]: 20%
